{"source": "paper PMC12784406", "about": "“IscS Kinetics in Native Mass Spectrometry Buffers Reveal Key Physiochemical Properties that Influence Enzyme Activity” (Journal of the American Society for Mass Spectrometry, 2025)", "target": "T1, IscS (Escherichia coli, UniProt P0A6B7)", "T1 construct": "pET vector, expressed in E. coli BL21(DE3), HisTrap Ni-NTA and Sephacryl S-300 purified; homodimer", "T1 sequence (P0A6B7 whole entry)": "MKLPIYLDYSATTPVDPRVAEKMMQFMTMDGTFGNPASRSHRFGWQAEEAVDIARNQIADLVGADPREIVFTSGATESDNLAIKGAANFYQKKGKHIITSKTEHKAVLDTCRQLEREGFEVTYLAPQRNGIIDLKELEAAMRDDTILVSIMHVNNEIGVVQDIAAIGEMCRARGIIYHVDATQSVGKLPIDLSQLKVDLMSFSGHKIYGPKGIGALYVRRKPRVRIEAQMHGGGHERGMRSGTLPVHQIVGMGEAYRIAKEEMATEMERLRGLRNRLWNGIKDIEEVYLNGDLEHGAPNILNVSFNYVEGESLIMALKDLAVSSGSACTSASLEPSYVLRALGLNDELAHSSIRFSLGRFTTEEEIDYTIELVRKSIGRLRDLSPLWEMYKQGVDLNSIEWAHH", "assay": "methylene blue sulfide detection assay, […] nm, anaerobic", "assay_type": "biochemical", "settings": "50 mM Tris/150 mM NaCl, pH 8.5, 37 °C, 4 mM DTT; IscS 0.5 uM, without IscU; L-cysteine varied"}
{"compound": "N[C@@H](CS)C(=O)O", "note": "[L-cysteine]", "values": [{"measurement": "methylene blue sulfide detection assay, 670 nm, anaerobic", "result": "Sulfide production was quantitated at different L-cysteine concentrations to determine the k cat values"}]}
